The text below walks through data of ChEMBL document CHEMBL3259549, “Unraveling the structure-activity relationship of tomatidine, a steroid alkaloid with unique antibiotic properties against persistent forms of Staphylococcus aureus” (2014).

Assay [1] concerns Staphylococcus aureus. The assay can be described thus: Antimicrobial activity against hemB-deficient Staphylococcus aureus Newbould after 48 hrs by broth microdilution method. It counts as functional. (In general: Dilution methods test growth across graded concentrations, often in twofold steps.)
The test system of assay [2] is Staphylococcus aureus. The assay can be described thus: microbe, parasite or virus in culture. The settings on record: ATCC 29213, 48 h.
Description: Antimicrobial activity against Staphylococcus aureus ATCC 29213 after 48 hrs by broth microdilution method
For assay [3], the system named is Staphylococcus aureus. The assay can be described thus: MIC fold reduction, ratio of gentamicin MIC for Staphylococcus aureus ATCC 29213 to gentamicin MIC for Staphylococcus aureus ATCC 29213 in presence of compound.

Values after ≈ are worked out from the molar mass of the structure shown. A value given as a limit tells only on which side of the number the result lay.

Consider GENTAMICIN, for which the MIC against Staphylococcus aureus [1] came out at 0.03 µg/mL.

As to `C[C@H]1CC[C@]2(NC1)O[C@H]1C[C@H]3[C@@H]4CC[C@H]5CC(NCCN)CC[C@]5(C)[C@H]4CC[C@]3(C)[C@H]1[C@@H]2C.Cl.Cl.Cl` (some centres undefined), the MIC against Staphylococcus aureus [1] worked out at 0.5 µg/mL; in the assay on Staphylococcus aureus [2], 8 µg/mL. The “gentamicin MIC fold reduction” value in the assay on Staphylococcus aureus [3] is 4.

For the compound `CC(N)[C@H]1CC[C@H]2[C@@H]3CC[C@H]4C[C@@H](O)CC[C@]4(C)[C@H]3CC[C@]12C.Cl` (some centres undefined), the MIC in the assay with Staphylococcus aureus [1] was greater than 8 µg/mL; against Staphylococcus aureus [2], 64 µg/mL. For the same compound, the “gentamicin MIC fold reduction” value with Staphylococcus aureus [3] is 2.

Turning to `C[C@]12CC[C@H](O)C[C@@H]1CC[C@@H]1[C@@H]2CC[C@]2(C)[C@@H](C(=O)CN3CCCCC3)CC[C@@H]12`, the MIC was greater than 8 µg/mL in the assay on Staphylococcus aureus [1] and greater than 64 µg/mL against Staphylococcus aureus [2]. Also, the “gentamicin MIC fold reduction” value in the assay on Staphylococcus aureus [3] is recorded as 2.

Turning to `C[C@H]1CCC([C@@H](C)[C@H]2[C@@H](O)C[C@H]3[C@@H]4CC[C@H]5C[C@@H](O)CC[C@]5(C)[C@H]4CC[C@]23C)NC1.Cl` (some centres undefined), the MIC came to 4 µg/mL with Staphylococcus aureus [1] and 32 µg/mL with Staphylococcus aureus [2]. Moreover, in the assay with Staphylococcus aureus [3], the “gentamicin MIC fold reduction” value was 4.

As to `CC(=O)NC[C@@H](C)CCC(O)[C@@H](C)[C@H]1[C@@H](O)C[C@H]2[C@@H]3CC[C@H]4C[C@@H](O)CC[C@]4(C)[C@H]3CC[C@]12C` (some centres undefined), the MIC in the assay with Staphylococcus aureus [1] was greater than 8 µg/mL; against Staphylococcus aureus [2], greater than 64 µg/mL. Besides, the “gentamicin MIC fold reduction” value in the assay with Staphylococcus aureus [3] stood at 1.

For the compound `CC(C)CCNC(C)[C@H]1CC[C@H]2[C@@H]3CC[C@H]4C[C@@H](O)CC[C@]4(C)[C@H]3CC[C@]12C.Cl` (some centres undefined), the MIC with Staphylococcus aureus [1] is greater than 8 µg/mL; against Staphylococcus aureus [2] it was greater than 64 µg/mL. The “gentamicin MIC fold reduction” value in the assay with Staphylococcus aureus [3] was found to be 4.

`C[C@H]1CC[C@]2(NC1)O[C@H]1C[C@H]3[C@@H]4CC[C@H]5CC(N)CC[C@]5(C)[C@H]4CC[C@]3(C)[C@H]1[C@@H]2C.Cl.Cl` (some centres undefined): the MIC is 1 µg/mL against Staphylococcus aureus [1] and 32 µg/mL against Staphylococcus aureus [2]. Further, in the assay with Staphylococcus aureus [3], the “gentamicin MIC fold reduction” value was 8.

Turning to `C[C@H]1CC[C@]2(NC1)O[C@H]1C[C@H]3[C@@H]4CC[C@H]5C[C@@H](O)CC[C@]5(C)[C@H]4CC[C@]3(C)[C@H]1[C@@H]2C.Cl`, the MIC was 0.06 µg/mL in the assay with Staphylococcus aureus [1] and greater than 64 µg/mL against Staphylococcus aureus [2]. For the same compound, the “gentamicin MIC fold reduction” value in the assay on Staphylococcus aureus [3] worked out at 8.

With `CC(NCCN)[C@H]1CC[C@H]2[C@@H]3CC[C@H]4C[C@@H](O)CC[C@]4(C)[C@H]3CC[C@]12C.Cl.Cl` (some centres undefined), the MIC with Staphylococcus aureus [1] is greater than 8 µg/mL; against Staphylococcus aureus [2] it was 32 µg/mL. Moreover, the “gentamicin MIC fold reduction” value in the assay on Staphylococcus aureus [3] came to 2.

In the case of `C[C@H]1CC[C@]2(NC1)O[C@H]1C[C@H]3[C@@H]4CC[C@H]5CC(=O)CC[C@]5(C)[C@H]4CC[C@]3(C)[C@H]1[C@@H]2C.Cl`, the MIC against Staphylococcus aureus [1] was 0.25 µg/mL; against Staphylococcus aureus [2], greater than 64 µg/mL. Moreover, the “gentamicin MIC fold reduction” value in the assay on Staphylococcus aureus [3] amounted to 8.

With `C[C@@H]1CC[C@@]2(NC1)O[C@H]1C[C@H]3[C@@H]4CC[C@H]5C[C@@H](O)CC[C@]5(C)[C@H]4CC[C@]3(C)[C@H]1[C@@H]2C`, the figures for the MIC against Staphylococcus aureus [1] and in the assay on Staphylococcus aureus [2] were greater than 8 µg/mL and greater than 64 µg/mL, respectively. Also, the “gentamicin MIC fold reduction” value with Staphylococcus aureus [3] was 1.

As for `C=CCO[C@H]1CC[C@@]2(C)[C@@H](CC[C@@H]3[C@@H]2CC[C@]2(C)[C@@H]4[C@H](C[C@@H]32)O[C@@]2(CC[C@H](C)CN2)[C@H]4C)C1.Cl`, the MIC with Staphylococcus aureus [1] stood at 0.25 µg/mL; in the assay on Staphylococcus aureus [2], 16 µg/mL. The “gentamicin MIC fold reduction” value with Staphylococcus aureus [3] is 8.

As to `CC(NCCCCN)[C@H]1CC[C@H]2[C@@H]3CC[C@H]4C[C@@H](O)CC[C@]4(C)[C@H]3CC[C@]12C.Cl.Cl` (some centres undefined), the results for the MIC in the assay with Staphylococcus aureus [1] and with Staphylococcus aureus [2] were greater than 8 µg/mL and 32 µg/mL, respectively. Further, the “gentamicin MIC fold reduction” value in the assay on Staphylococcus aureus [3] was 2.

For `C[C@H]1CC[C@@]2(O[C@H]3C[C@H]4[C@@H]5CC[C@H]6C[C@@H](O)CC[C@]6(C)[C@H]5CC[C@]4(C)[C@H]3[C@@H]2C)N(C=O)C1`, the MIC is greater than 8 µg/mL in the assay with Staphylococcus aureus [1] and greater than 64 µg/mL with Staphylococcus aureus [2]. In addition, the “gentamicin MIC fold reduction” value in the assay on Staphylococcus aureus [3] is on record as 2.

Turning to `CC(=O)NC[C@@H](C)CCC1=C(C)[C@H]2[C@H](C[C@H]3[C@@H]4CC[C@H]5C[C@@H](O)CC[C@]5(C)[C@H]4CC[C@@]32C)O1`, the values for the MIC against Staphylococcus aureus [1] and against Staphylococcus aureus [2] were greater than 8 µg/mL and greater than 64 µg/mL, respectively. Moreover, in the assay with Staphylococcus aureus [3], the “gentamicin MIC fold reduction” value is 1.

On to `CC(NCCCN)[C@H]1CC[C@H]2[C@@H]3CC[C@H]4C[C@@H](O)CC[C@]4(C)[C@H]3CC[C@]12C.Cl.Cl` (some centres undefined), for which the figures for the MIC against Staphylococcus aureus [1] and with Staphylococcus aureus [2] were greater than 8 µg/mL and 32 µg/mL, respectively. In addition, the “gentamicin MIC fold reduction” value in the assay with Staphylococcus aureus [3] amounted to 2.

For the compound `C[C@H]1CC[C@]2(NC1)O[C@H]1C[C@H]3[C@@H]4CC[C@H]5C[C@H](O)CC[C@]5(C)[C@H]4CC[C@]3(C)[C@H]1[C@@H]2C.Cl`, the MIC against Staphylococcus aureus [1] is 4 µg/mL; against Staphylococcus aureus [2], greater than 64 µg/mL. Further, in the assay with Staphylococcus aureus [3], the “gentamicin MIC fold reduction” value is recorded as 4.

Turning to `CCCCNC(C)[C@H]1CC[C@H]2[C@@H]3CC[C@H]4C[C@@H](O)CC[C@]4(C)[C@H]3CC[C@]12C.Cl` (some centres undefined), the MIC turned out to be 4 µg/mL in the assay on Staphylococcus aureus [1] and 64 µg/mL against Staphylococcus aureus [2]. The “gentamicin MIC fold reduction” value in the assay with Staphylococcus aureus [3] amounted to 8.

Take `CN(C)CC(=O)[C@H]1CC[C@H]2[C@@H]3CC[C@H]4C[C@@H](O)CC[C@]4(C)[C@H]3CC[C@]12C`: the MIC is greater than 8 µg/mL with Staphylococcus aureus [1] and greater than 64 µg/mL in the assay on Staphylococcus aureus [2]. In addition, the “gentamicin MIC fold reduction” value in the assay with Staphylococcus aureus [3] is on record as 2.

Turning to `C[C@H]1CC[C@]2(NC1)O[C@H]1C[C@H]3[C@@H]4CC[C@H]5CC(NCCCCCCN)CC[C@]5(C)[C@H]4CC[C@]3(C)[C@H]1[C@@H]2C.Cl.Cl.Cl` (some centres undefined), the MIC was found to be 1 µg/mL against Staphylococcus aureus [1] and 32 µg/mL with Staphylococcus aureus [2]. Further, the “gentamicin MIC fold reduction” value in the assay with Staphylococcus aureus [3] is 2.

For `C[C@H]1CC[C@]2(NC1)O[C@H]1C[C@H]3[C@@H]4CC[C@H]5C[C@@H](O)CC[C@]5(C)[C@H]4CC[C@]3(C)[C@H]1[C@@H]2C` [TOMATIDINE], in the assay on Staphylococcus aureus [1], the MIC turned out to be 0.12 µg/mL (≈ 0.289 µM).

As for `C[C@H]1CC[C@]2(NC1)O[C@H]1C[C@H]3[C@@H]4CC[C@H]5CC(NCCCCN)CC[C@]5(C)[C@H]4CC[C@]3(C)[C@H]1[C@@H]2C.Cl.Cl.Cl` (some centres undefined), the MIC amounted to 0.5 µg/mL with Staphylococcus aureus [1] and 16 µg/mL in the assay on Staphylococcus aureus [2]. Besides, the “gentamicin MIC fold reduction” value in the assay on Staphylococcus aureus [3] came to 4.

For the compound `CCCCNC(C)[C@H]1[C@@H](O)C[C@H]2[C@@H]3CC[C@H]4C[C@@H](O)CC[C@]4(C)[C@H]3CC[C@@]21C.Cl` (some centres undefined), the figures for the MIC in the assay on Staphylococcus aureus [1] and in the assay on Staphylococcus aureus [2] were greater than 8 µg/mL and greater than 64 µg/mL, respectively. In addition, the “gentamicin MIC fold reduction” value in the assay with Staphylococcus aureus [3] was 2.

Consider `CC(NCCCN(C)C)[C@H]1[C@@H](O)C[C@H]2[C@@H]3CC[C@H]4C[C@@H](O)CC[C@]4(C)[C@H]3CC[C@@]21C` (some centres undefined), for which the MIC in the assay with Staphylococcus aureus [1] was greater than 8 µg/mL; in the assay with Staphylococcus aureus [2], greater than 64 µg/mL. In the assay with Staphylococcus aureus [3], the “gentamicin MIC fold reduction” value was 2.

Consider `CC(=O)NC[C@@H](C)CCC1O[C@H]2C[C@H]3[C@@H]4CC[C@H]5C[C@@H](O)CC[C@]5(C)[C@H]4CC[C@]3(C)[C@H]2[C@@H]1C` (some centres undefined), for which the MIC is greater than 8 µg/mL against Staphylococcus aureus [1] and greater than 64 µg/mL in the assay on Staphylococcus aureus [2]. The “gentamicin MIC fold reduction” value with Staphylococcus aureus [3] amounted to 1.
